Laboratory results as given in patent publication US20250057928A1, “VACCINE COMPOSITION FOR INDUCING ANTI-IL-23 ANTIBODY” (OSAKA UNIVERSITY, priority 2021, published 2025).
Where no end group is shown, it is not given here.

Columns and labels:
epitope peptide = test: Antibody titer (GMT) of serum of mice administered AJP001 conjugated peptide, ELISA; assay type: in vivo, mouse; details: BALB/c mice, 0.5 mg/body intradermal with equal amount of 2% Alhydrogel, 3 times at two-week intervals; serum 6 weeks after initial administration; titer to each epitope sequence
Method: AJP001 conjugated peptide having one of the B cell epitope sequences of SEQ ID NOs: 1-5 was dissolved in physiological saline and intradermally administered twice to BALB/c mice (female, 6-week-old, N=5-6) at 0.5 mg/body at 2-week intervals. Blood was collected before administration and 5 weeks after the initial administration, and the antibody titer against each AJP001 conjugated peptide and the binding ability to recombinant mouse IL-23 protein (rmIL-23) were measured by the ELISA method. Specifically, a 96-well plate immobilized with an epitope peptide dissolved at 10 μg/mL in carbonate buffer was blocked with 5% skim milk/PBS, and then serum serially diluted with 5% skim milk/PBS was added, and the mixture was left standing at 4° C. overnight. After washing the wells with PBS-T, HRP-labeled anti-mouse IgG antibody (GE Healthcare) diluted with 5% skim milk/PBS was added and the mixture was shaken at room temperature for 3 hr. After washing the wells with PBS-T, TMB solution (SIGMA) was added, the wells were allowed to stand for 30 min in the dark, the reaction was stopped by adding 0.5M H2SO4, and the absorbance at 450 nm was measured using a plate reader. The serum dilution rate that gave 1/2 (OD=1.75) of the maximum absorbance was defined as the antibody titer, and the geometric mean titer: GMT was calculated from the individual values. Binding to IL-23 protein was measured by the ELISA method in the same manner as the antibody titer, using rmIL-23 (Antibodies-online GmbH) as the solid-phased antigen and goat serum for blocking.
AJP001 conjugated peptide (SEQ ID NO: 2) was dissolved in physiological saline and intradermally administered to BALB/c mice (female, 6-week-old, N=6) at 1 mg/body 3 times at two-week intervals, and blood was collected every 2 weeks until 8 weeks. The antibody titer (GMT) of all the collected sera and the binding ability to rmIL-23 of the serum at the time point of 6 weeks were measured by the ELISA method (same method as in Example 1). The antibody titer and the binding of the induced antibody to rmIL-23 at each time point are shown in FIGS. 2 (a) and (b), respectively.
AJP001 conjugated peptide (SEQ ID NOs: 6-37) was dissolved in physiological saline, mixed with an equal amount of 2% Alhydrogel (invivogen), and this was intradermally administered to BALB/c mice (female, 6-week-old, N=5-6) at 0.5 mg/body 3 times at two-week intervals. Blood was collected before administration and at the time point of 6 weeks after initial administration, and the antibody titer (GMT) to each epitope sequence and binding ability to recombinant human IL-23 protein (rhIL-23) (Peprotech) were measured by the ELISA method (same method as in Example 1). The binding to rhIL-23 was evaluated by a binding ratio to normal serum by calculating the ratio of the absorbance of a well added with normal mouse serum to the absorbance of a well added with antiserum derived from a mouse administered with each AJP001 conjugated peptide (SEQ ID NOs: 6-37). In addition, the neutralization activity of mouse antiserum was evaluated using an action on IL-17 production in rhIL-23 stimulated mouse splenocyte as an index. The spleen of normal BALB/c mouse (female, 5-week-old, N=3) was triturated using a syringe barrel and a cell strainer and washed with and suspended in HBSS (−). Erythrocytes were then removed using ACK Buffer (Thermo fisher scientific), and splenocytes were isolated. The splenocytes were prepared to 2.5×10^6 cells/mL with 10% FBS/1% penicillin/streptomycin/4 ng/mL rmIL-2-containing RPMI1640 medium (culture medium), and seeded in a 96 well plate at 100 μl/well. The antiserum (final concentration 15-fold) of the mice administered with each AJP001 conjugated peptide and rhIL-23 (final concentration 10 ng/ml) were added to the culture medium, reacted at 37° C. for 2 hr, added at 100 μL/well to a 96-well plate seeded with splenocytes, and cultured for 3 days in a 37° C./5% CO2 incubator. […]

[1] = test system: IL-17 production in rhIL-23 stimulated mouse splenocyte; test: Neutralization activity of mouse antiserum: IL-17 production in rhIL-23 stimulated mouse splenocyte; assay type: cell-based; details: antiserum final 15-fold, rhIL-23 10 ng/ml, 3 days culture; IL-17A/F ELISA
Method: (§1) AJP001 conjugated peptide (SEQ ID NOs: 6-37) was dissolved in physiological saline, mixed with an equal amount of 2% Alhydrogel (invivogen), and this was intradermally administered to BALB/c mice (female, 6-week-old, N=5-6) at 0.5 mg/body 3 times at two-week intervals. Blood was collected before administration and at the time point of 6 weeks after initial administration, and the antibody titer (GMT) to each epitope sequence and binding ability to recombinant human IL-23 protein (rhIL-23) (Peprotech) were measured by the ELISA method (same method as in Example 1). The binding to rhIL-23 was evaluated by a binding ratio to normal serum by calculating the ratio of the absorbance of a well added with normal mouse serum to the absorbance of a well added with antiserum derived from a mouse administered with each AJP001 conjugated peptide (SEQ ID NOs: 6-37). In addition, the neutralization activity of mouse antiserum was evaluated using an action on IL-17 production in rhIL-23 stimulated mouse splenocyte as an index. The spleen of normal BALB/c mouse (female, 5-week-old, N=3) was triturated using a syringe barrel and a cell strainer and washed with and suspended in HBSS (−). Erythrocytes were then removed using ACK Buffer (Thermo fisher scientific), and splenocytes were isolated. The splenocytes were prepared to 2.5×10^6 cells/mL with 10% FBS/1% penicillin/streptomycin/4 ng/mL rmIL-2-containing RPMI1640 medium (culture medium), and seeded in a 96 well plate at 100 μl/well. The antiserum (final concentration 15-fold) of the mice administered with each AJP001 conjugated peptide and rhIL-23 (final concentration 10 ng/ml) were added to the culture medium, reacted at 37° C. for 2 hr, added at 100 μL/well to a 96-well plate seeded with splenocytes, and cultured for 3 days in a 37° C./5% CO2 incubator. An untreated well and a control well to which normal mouse serum and rhIL-23 were added were provided. IL-17A/F in the culture supernatant was measured using Mouse IL-17A/F ELISA kit (R&D systems), the proportion (%) of IL-17 to normal serum was calculated from the IL-17 concentrations of untreated well (A), control well (B), and well (C) to which antiserum of the mice administered with each AJP001 conjugated peptide was added and according to the following formula, and the neutralization activity was evaluated.
Percentage of IL-17 to normal serum (%)=100×(C−A/B−A)

[2] = test system: recombinant human IL-23 protein (rhIL-23); test: Binding of mouse antiserum to rhIL-23, ELISA; details: rhIL-23 ELISA; antiserum of BALB/c mice 6 weeks after initial administration, 0.5 mg/body with Alhydrogel
Method: as §1
AJP001 conjugated peptide (SEQ ID NO: 6) was dissolved in physiological saline and intradermally administered to BALB/c mice (female, 6-week-old, N=6) at 1 mg/body 3 times at two-week intervals, and blood was collected every 2 weeks until 8 weeks. The antibody titer (GMT) of all the collected sera and the binding ability to rhIL-23 of the serum at 6 weeks were measured by the ELISA method. In FIG. 5, “*” means P<0.05.

Substance | antibody titer (GMT) (epitope peptide) | neutralization activity (percentage of IL-17 to normal serum (%)) [1] | binding to IL-23 (binding ratio to normal serum) [2]
15 (PWQRPWQR; not fully specified (N-terminus)) [compound 15] | 458 | 10% | 1.16
6 (SPSQPWQR; not fully specified (N-terminus); listed as Homo sapiens) [compound 6] | 12563 | 15.8% | 4.40
9 (SPAQPWQR; not fully specified (N-terminus)) [compound 9] | 4683 | 4.0% | 1.01
36 (QPWQRSQPWQR; not fully specified (N-terminus)) [compound 36] | 8202 | 70.3% | 1.10
13 (SPSQPWAR; not fully specified (N-terminus)) [compound 13] | 3215 | 4.8% | 1.11
7 (APSQPWQR; not fully specified (N-terminus)) [compound 7] | 5417 | 4.2% | 1.40
37 (QPWQRGGGGSQPWQR; not fully specified (N-terminus)) [compound 37] | 6459 | 63.9% | 1.05
32 (SQPWQR; not fully specified (N-terminus); listed as Homo sapiens) [compound 32] | 5567 | 61.3% | 1.03
20 (SPSQTWQR; not fully specified (N-terminus)) [compound 20] | 36347 | 5.8% | 1.23
29 (SPKQPWQR; not fully specified (N-terminus)) [compound 29] | 9056 | 63.9% | 1.11
34 (PSQPWQRK; not fully specified (N-terminus); listed as Homo sapiens) [compound 34] | 362 | 32.5% | 0.97
33 (QPWQR; not fully specified (N-terminus); listed as Homo sapiens) [compound 33] | 16458 | 72.6% | 1.00
24 (STSQTWQR; not fully specified (N-terminus)) [compound 24] | 126353 | 0.0% | 1.20
21 (SSSQSWQR; not fully specified (N-terminus)) [compound 21] | 19793 | 6.9% | 1.07
